We go through six compounds from publication PMC3325965, “Structural Basis of the Chromodomain of Cbx3 Bound to Methylated Peptides from Histone H1 and G9a” (PLoS ONE, 2012).

Square brackets hold non-standard residues; d marks the D form. Peptide text beside a SMILES is read from it. Lys(Me3) = C[N+](C)(C)CCCC[C@H](N)C(=O)O; Lys(Me2) = CN(C)CCCC[C@H](N)C(=O)O; Lys(Me) = CNCCCC[C@H](N)C(=O)O

This assay deals with T1, human Cbx3 chromodomain (Homo sapiens, UniProt Q13185).
T1 construct: The chromodomain of Cbx3 (29–86) was subcloned into a pET-28a-MHL vector; His tag (TEV-cleavable, pET-28a-MHL) (N, cleaved yes); made in house
T1 sequence (Q13185 29-86): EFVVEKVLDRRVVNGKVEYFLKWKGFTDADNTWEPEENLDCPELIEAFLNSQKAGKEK
The experiment in a line: Isothermal titration calorimetry (ITC) of methylated peptides binding to Cbx3 chromodomain. More on the design: key to Kd peptide: N/B: No binding was detected. The following applies: Cbx3 chromodomain (residues 29–86), 60 µl of peptide solution (1–2 mM) injected into cell with 40–100 mM protein, 20 mM Tris–HCl, pH 7.5, 150 mM NaCl, one-site binding model. An excerpt: Chromodomain has been identified to be a methyl-lysine binding motif involved in transcription regulation, [28]. Many chromodomain-containing proteins, such as HP1 proteins and Polycomb group proteins, were reported to recognize methylated histone tails, [13], [17], [29]. Besides methylated histone H3K9, Cbx3, also known as HP1γ, can also bind to methylated Lys26 of histone H1 and methylated Lys185 of G9a, [22], [23]. To elucidate the binding affinity of Cbx3 chromodomain to these two methylated sites, isothermal titration calorimetry (ITC) assay was performed using histone H1K26 and G9aK185 peptides bearing different lysine methylation states as substrates. […] (Table 1).
Isothermal titration calorimetry measurements were performed as reported previously. Experiments were carried out by injecting 60 µl of peptide solution (1–2 mM) into a sample cell containing […] protein of Cbx3 chromodomain in 20 mM Tris–HCl, pH 7.5, 150 mM NaCl. The ITC measurements were fit to a one-site binding model using Origin Software (MicroCal Inc.)

Usually Kd stands for the constant that tells how readily two partners part at equilibrium. As for `CSCC[C@H](NC(=O)[C@@H](NC(=O)[C@H](CCCCN(C)C)NC(=O)[C@H](CCCNC(=N)N)NC(=O)[C@H](C)NC(=O)[C@H](CCCNC(=N)N)NC(=O)[C@H](Cc1c[nH]cn1)NC(=O)[C@@H](NC(=O)[C@@H](N)CCCCN)C(C)C)[C@@H](C)O)C(=O)N[C@@H](CO)C(=O)N[C@@H](CCCCN)C(=O)N1CCC[C@H]1C(=O)O` [G9a(179–190) me2] (H-KVHRAR[Lys(Me2)]TMSKP-OH), the Kd turned out to be 9 µM.

Regarding “TPVKKKARK^26SAG [H1.4(18–29) me1, histone H1.4 peptide, residues 18–29, mono-methylated at Lys26]”, the Kd peptide result was “N/B”.

For `CSCC[C@H](NC(=O)[C@@H](NC(=O)[C@H](CCCC[N+](C)(C)C)NC(=O)[C@H](CCCNC(=N)N)NC(=O)[C@H](C)NC(=O)[C@H](CCCNC(=N)N)NC(=O)[C@H](Cc1c[nH]cn1)NC(=O)[C@@H](NC(=O)[C@@H](N)CCCCN)C(C)C)[C@@H](C)O)C(=O)N[C@@H](CO)C(=O)N[C@@H](CCCCN)C(=O)N1CCC[C@H]1C(=O)O` [G9a(179–190) me3] (H-KVHRAR[Lys(Me3)]TMSKP-OH), the Kd was 14 µM. `CNCCCC[C@H](NC(=O)[C@H](CCCNC(=N)N)NC(=O)[C@H](C)NC(=O)[C@H](CCCNC(=N)N)NC(=O)[C@H](Cc1c[nH]cn1)NC(=O)[C@@H](NC(=O)[C@@H](N)CCCCN)C(C)C)C(=O)N[C@H](C(=O)N[C@@H](CCSC)C(=O)N[C@@H](CO)C(=O)N[C@@H](CCCCN)C(=O)N1CCC[C@H]1C(=O)O)[C@@H](C)O` [G9a(179–190) me1] (H-KVHRAR[Lys(Me)]TMSKP-OH) showed a Kd of 28 µM. Consider “KVHRARK^185TMSKP [G9a(179–190) unmodified, histone methyltransferase G9a peptide, residues 179–190, without modification]”, for which the Kd peptide entry is reported as “N/B”. Further, the Kd peptide result (listed as G9aK185) is given as “did not exhibit detectable binding”. Regarding “TPVKKKARK^26SAG [H1.4(18–29) unmodified, histone H1.4 peptide, residues 18–29, without modification]”, the Kd peptide entry is reported as “N/B ^*”. Further, under “listed as H1K26”, the Kd peptide entry is “did not exhibit detectable binding”.
